These results are taken from ChEMBL document CHEMBL1201862, “PubChem BioAssay data set” (2004).

SMILES strings stand for the structures.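 Method: 48-hour compound exposure of cells in 96-well plates, five concentrations, linear interpolation of endpoints. At the GI50, growth is halved.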 The source made the active and inactive calls. Rule as the data show it: active = GI50 up to about 1.1 µM and inactive = higher.

Among the test systems are OVCAR-3; U-251; LOX IMVI; Hs-578T; SK-OV-3; SN12C; SW-620; CAKI-1; EKVX; TK-10; OVCAR-8; MDA-N; BT-549; 786-0; SK-MEL-2; HOP-62; SK-MEL-28; RXF 393; SF-539; HL-60.
Holding throughout (assay): NCI anticancer screen, dose series, 48 h

For `Cc1ccsc1/C=N/Nc1nc2ccccc2s1`, the GI50 is 12.9 µM (inactive) with OVCAR-3; 13.5 µM (inactive) in the assay on U-251; 23.9 µM (inactive) in the assay with LOX IMVI; 23.2 µM (inactive) in the assay on Hs-578T; 12.5 µM (inactive) in the assay with SK-OV-3; 13.3 µM (inactive) in the assay with SN12C. The GI50 in the assay on SW-620 is 25 µM (inactive); in the assay on CAKI-1 it was 15.5 µM (inactive); in the assay on EKVX it was 19.3 µM (inactive); with TK-10 it was 13.9 µM (inactive); with OVCAR-8 it was 23 µM (inactive); in the assay on MDA-N it was 34.8 µM (inactive). In addition, the GI50 in the assay on BT-549 is 71.3 µM (inactive); with 786-0, 12.3 µM (inactive); in the assay on SK-MEL-2, 26.2 µM (inactive); in the assay with HOP-62, 8.99 µM (inactive); in the assay on SK-MEL-28, 25.1 µM (inactive); in the assay with RXF 393, 6.27 µM (inactive).
Take `COc1ccc(NC(=O)CC(=O)n2nc(-c3ccccc3)c(/N=N/c3ccccc3C)c2-c2ccccc2)cc1`: the GI50 is 17.3 µM (inactive) in the assay on OVCAR-3; 16.4 µM (inactive) in the assay on U-251; 41 µM (inactive) in the assay on LOX IMVI; 14.3 µM (inactive) in the assay with Hs-578T; 15.1 µM (inactive) in the assay on SF-539; 19.9 µM (inactive) in the assay on SK-OV-3. Besides, the GI50 in the assay with SN12C is 53.6 µM (inactive); in the assay on SW-620, 35.4 µM (inactive); in the assay with CAKI-1 it was 17.3 µM (inactive); with EKVX it was 16.3 µM (inactive); in the assay with TK-10, 24.7 µM (inactive); in the assay on OVCAR-8 it was 28 µM (inactive). Besides, the GI50 is > 100 µM (inactive) in the assay with MDA-N; 54.6 µM (inactive) in the assay on HL-60; 18.5 µM (inactive) in the assay on 786-0; 18.2 µM (inactive) in the assay with SK-MEL-2; 15.9 µM (inactive) in the assay on HOP-62; > 41.7 µM (inactive) in the assay with SK-MEL-28. Moreover, in the assay on RXF 393, the GI50 was 17.3 µM (inactive).
For `Fc1cccc(F)c1C1SCc2nc3cc4ccccc4cc3n21` (centres undefined), the GI50 with OVCAR-3 is 15.7 µM (inactive); in the assay on U-251, 30.7 µM (inactive); with LOX IMVI it was 32.9 µM (inactive); with SF-539, 17.2 µM (inactive); with SK-OV-3, 91 µM (inactive); in the assay with SN12C, 34.1 µM (inactive). The GI50 in the assay on SW-620 was 49 µM (inactive); with CAKI-1, 88.1 µM (inactive); in the assay on EKVX, 54.6 µM (inactive); in the assay with TK-10 it was 96.6 µM (inactive); in the assay with OVCAR-8, 58.6 µM (inactive); in the assay with MDA-N, 39 µM (inactive). In addition, the GI50 was 8.71 µM (inactive) in the assay with BT-549; 31.2 µM (inactive) with 786-0; > 100 µM (inactive) in the assay on SK-MEL-2; 95.9 µM (inactive) in the assay on HOP-62; 49.7 µM (inactive) with SK-MEL-28; 28.4 µM (inactive) in the assay with RXF 393.
Regarding `COc1cc(C2C3=C(CCCC3=O)N(c3ccc(C)cc3)C3=C2C(=O)CCC3)c([N+](=O)[O-])cc1OC`, the GI50 with OVCAR-3 was 96.2 µM (inactive); with U-251, 42 µM (inactive); with LOX IMVI, 83.6 µM (inactive); with Hs-578T, 75.9 µM (inactive); with SF-539, 61.1 µM (inactive); in the assay with SK-OV-3 it was > 100 µM (inactive). Also, the GI50 in the assay with SN12C, in the assay on SW-620, with CAKI-1, in the assay on EKVX, with TK-10 and with BT-549 was > 100 µM (inactive) throughout. In addition, the GI50 in the assay on HL-60 was 45.4 µM (inactive); with 786-0 it was 63.1 µM (inactive); in the assay on SK-MEL-28, 87.3 µM (inactive); in the assay with RXF 393, 30 µM (inactive).
Consider `Clc1ccc(CNc2nc(Cl)c3nc[nH]c3n2)cc1Cl`, for which the GI50 is 18.9 µM (inactive) with OVCAR-3; 36.2 µM (inactive) with U-251; 21 µM (inactive) in the assay on Hs-578T; 13.5 µM (inactive) with SF-539; 20.6 µM (inactive) in the assay with SK-OV-3; 21.6 µM (inactive) in the assay on SN12C. The GI50 in the assay with CAKI-1 was 23.2 µM (inactive); with EKVX, 25.2 µM (inactive); with TK-10 it was 12.2 µM (inactive); with OVCAR-8, 17.9 µM (inactive); in the assay on MDA-N, 26.4 µM (inactive); in the assay on BT-549, 24.2 µM (inactive). In addition, the GI50 in the assay with 786-0 was 27.7 µM (inactive); in the assay with SK-MEL-2 it was 22.3 µM (inactive); in the assay on HOP-62, 27.4 µM (inactive); in the assay with RXF 393 it was 30.9 µM (inactive).
`N#Cc1c(-c2ccccc2)[nH]c(=O)n(C2OC(CO)C(O)C(O)C2O)c1=O` (centres undefined): the GI50 with OVCAR-3, in the assay with U-251, in the assay with Hs-578T, in the assay with SF-539, with SK-OV-3 and in the assay with SN12C was > 100 µM (inactive) in each case. Further, the GI50 in the assay with SW-620, with CAKI-1, in the assay on EKVX, in the assay with TK-10, with OVCAR-8 and with BT-549 was > 100 µM (inactive) throughout. The GI50 in the assay with 786-0, in the assay on SK-MEL-2, in the assay on HOP-62, in the assay on SK-MEL-28 and in the assay on RXF 393 was > 100 µM (inactive) in each case.
Take `CCCCCCCCC/C=C1/CC(CO)(COC(=O)C2CCCCC2)OC1=O` (centres undefined): the GI50 with OVCAR-3 was > 100 µM (inactive); in the assay on U-251, > 100 µM (inactive); in the assay with LOX IMVI, 72.4 µM (inactive); in the assay with Hs-578T it was 62.8 µM (inactive); in the assay with SK-OV-3, > 100 µM (inactive); in the assay with SN12C, > 100 µM (inactive). Besides, the GI50 with SW-620 is > 100 µM (inactive); with CAKI-1, > 100 µM (inactive); in the assay on EKVX, > 100 µM (inactive); with TK-10, > 100 µM (inactive); with OVCAR-8 it was > 100 µM (inactive); with MDA-N, 86.7 µM (inactive). Moreover, the GI50 in the assay on BT-549 was > 100 µM (inactive); with 786-0, > 100 µM (inactive); with SK-MEL-2 it was > 100 µM (inactive); in the assay with HOP-62, 63.7 µM (inactive); in the assay with SK-MEL-28, > 100 µM (inactive); with RXF 393, > 100 µM (inactive).
For the molecule `COc1c(O)cc2c(c1O)C1O[C@H](CO)C(O)[C@H](O)[C@H]1OC2=O` (some centres undefined), the GI50 with OVCAR-3, with U-251, with LOX IMVI, in the assay on SF-539, in the assay on SK-OV-3 and in the assay with SN12C was > 100 µM (inactive) each time. Further, the GI50 in the assay with SW-620, in the assay on CAKI-1, in the assay with TK-10, in the assay with OVCAR-8, with MDA-N and in the assay on BT-549 was > 100 µM (inactive) in each case. For the same molecule, the GI50 in the assay with HL-60, in the assay with 786-0, in the assay on SK-MEL-2, in the assay with HOP-62, with SK-MEL-28 and with RXF 393 was > 100 µM (inactive) throughout.
On to `CC1=C(N2CC2)C(=O)c2nc3n(c2C1=O)CCC3O` (centres undefined), for which the GI50 is 0.275 µM (active) in the assay with OVCAR-3; 0.157 µM (active) with U-251; 0.619 µM (active) in the assay with LOX IMVI; 0.0239 µM (active) in the assay on Hs-578T; 0.254 µM (active) with SF-539; 0.249 µM (active) with SK-OV-3. Besides, the GI50 with SN12C is 0.508 µM (active); with SW-620, 0.153 µM (active); with CAKI-1, 0.275 µM (active); with EKVX, 0.438 µM (active); in the assay on TK-10, 0.09 µM (active); in the assay on OVCAR-8, 0.201 µM (active). Also, the GI50 in the assay with BT-549 was 0.0171 µM (active); with HL-60 it was 0.566 µM (active); in the assay on 786-0, 0.179 µM (active); in the assay on SK-MEL-2 it was 0.7 µM (active); in the assay with HOP-62 it was 0.126 µM (active); with SK-MEL-28, 0.252 µM (active). The GI50 in the assay with RXF 393 is 0.187 µM (active).
As to `COc1ccc(/C=C2\CN(C)CC3C2=NN(c2ccccc2)C3c2ccc(OC)cc2)cc1` (centres undefined), the GI50 is > 100 µM (inactive) in the assay with OVCAR-3; > 100 µM (inactive) in the assay with LOX IMVI; 42.8 µM (inactive) with Hs-578T; 16.6 µM (inactive) in the assay with SK-OV-3; > 100 µM (inactive) in the assay on SN12C; > 100 µM (inactive) in the assay with SW-620. Besides, the GI50 in the assay on CAKI-1 is 60 µM (inactive); in the assay with EKVX it was > 100 µM (inactive); in the assay with TK-10 it was 26.1 µM (inactive); in the assay with OVCAR-8 it was 67.5 µM (inactive); in the assay on MDA-N, > 100 µM (inactive); in the assay with BT-549 it was > 100 µM (inactive). For the same molecule, the GI50 in the assay with 786-0 was 27.7 µM (inactive); in the assay with HOP-62 it was 38 µM (inactive); with SK-MEL-28, > 100 µM (inactive); in the assay with RXF 393, 13 µM (inactive).
As to `O=C1NCN(c2ccccc2)C12CCN(CC1COc3ccccc3O1)CC2` (centres undefined) [SPIROXATRINE], the GI50 in the assay with OVCAR-3 is 28.6 µM (inactive); with U-251, 31.3 µM (inactive); with LOX IMVI it was > 100 µM (inactive); with Hs-578T, 23.5 µM (inactive); in the assay on SF-539, 62.5 µM (inactive); in the assay on SK-OV-3 it was 51.3 µM (inactive). The GI50 is > 100 µM (inactive) in the assay with SN12C; > 100 µM (inactive) in the assay with SW-620; 39.8 µM (inactive) with CAKI-1; 43.5 µM (inactive) in the assay on EKVX; 46.9 µM (inactive) in the assay on TK-10; 69.3 µM (inactive) with OVCAR-8. In addition, the GI50 with MDA-N was > 100 µM (inactive); in the assay on HL-60, > 100 µM (inactive); in the assay with 786-0 it was 31.6 µM (inactive); in the assay with SK-MEL-2 it was 38.4 µM (inactive); in the assay on HOP-62 it was 22.5 µM (inactive); in the assay with SK-MEL-28, > 100 µM (inactive). In addition, the GI50 with RXF 393 is 29.9 µM (inactive).
